Test results published in ChEMBL document CHEMBL3885881, “DrugMatrix”.

Organism: Rattus norvegicus
Test: DrugMatrix - Regimen: Daily Repeat
Format: toxicity, organism-based, Sprague-Dawley
Set-up: regimen Daily Repeat, gender Male, age 6-8 weeks
Settings: in vivo, po, route oral GAVAGE, vehicle .5 % CMC; for BASOPHIL / EOSINOPHIL / ERYTHROCYTE COUNT / HEMATOCRIT / HEMOGLOBIN / LEUKOCYTE COUNT / LYMPHOCYTE / MEAN CORPUSCULAR HEMOGLOBIN / MEAN CORPUSCULAR HEMOGLOBIN CONCENTRATION / MEAN CORPUSCULAR VOLUME / MONOCYTE / NEUTROPHIL / PLATELET COUNT: tissue Blood; for ALANINE AMINOTRANSFERASE / ALBUMIN / ALKALINE PHOSPHATASE / ASPARTATE AMINOTRANSFERASE / BLOOD UREA NITROGEN / CHLORIDE / CHOLESTEROL / CREATINE PHOSPHOKINASE / CREATININE / GLUCOSE / PHOSPHORUS / POTASSIUM / SODIUM / TOTAL BILIRUBIN / TOTAL PROTEIN: tissue Plasma
[1] = 50 mg/kg, 72 h, dose level Low, time 3 day
[2] = 50 mg/kg, 120 h, dose level Low, time 5 day
[3] = 1200 mg/kg, 72 h, dose level High, time 3 day
[4] = 1200 mg/kg, 120 h, dose level High, time 5 day

**Q.** Which BASOPHIL [1] does the source give for `CCN1CCC[C@H]1CNC(=O)c1cc(S(N)(=O)=O)ccc1OC` [LEVOSULPIRIDE] here?
**A.** 0%

**Q.** And the EOSINOPHIL [1]?
**A.** 0.33%

**Q.** And the “ERYTHROCYTE COUNT” value [1]?
**A.** 5.59 x10E6/uL

**Q.** And the HEMATOCRIT [1]?
**A.** 33.77%

**Q.** What about the HEMOGLOBIN [1] of the same compound?
**A.** 13.77 G/DL

**Q.** And the “LEUKOCYTE COUNT” value [1]?
**A.** 14.5 x10E3/uL

**Q.** And the LYMPHOCYTE [1]?
**A.** 87%

**Q.** And the “MEAN CORPUSCULAR HEMOGLOBIN” value [1]?
**A.** 24.6 pg

**Q.** What about the “MEAN CORPUSCULAR HEMOGLOBIN CONCENTRATION” value [1] of the same compound?
**A.** 40.77 G/DL

**Q.** What about the “MEAN CORPUSCULAR VOLUME” value [1] of the same compound?
**A.** 60.4 fL

**Q.** And the MONOCYTE [1]?
**A.** 1.67%

**Q.** And the NEUTROPHIL [1]?
**A.** 11%

**Q.** What about the “PLATELET COUNT” value [1] of the same compound?
**A.** 1162.67 x10E3/uL

**Q.** What about the “ALANINE AMINOTRANSFERASE” value [1] of the same compound?
**A.** 41 u/L

**Q.** And the ALBUMIN [1]?
**A.** 3.7 G/DL

**Q.** And the “ALKALINE PHOSPHATASE” value [1]?
**A.** 441.67 u/L

**Q.** What about the “ASPARTATE AMINOTRANSFERASE” value [1] of the same compound?
**A.** 64 u/L

**Q.** And the “BLOOD UREA NITROGEN” value [1]?
**A.** 13.33 mg/dL

**Q.** And the CHLORIDE [1]?
**A.** 106.33 MEQ/L

**Q.** What about the CHOLESTEROL [1] of the same compound?
**A.** 70.33 mg/dL

**Q.** And the “CREATINE PHOSPHOKINASE” value [1]?
**A.** 137 u/L

**Q.** What about the CREATININE [1] of the same compound?
**A.** 0.5 mg/dL

**Q.** And the GLUCOSE [1]?
**A.** 187.67 mg/dL

**Q.** What about the PHOSPHORUS [1] of the same compound?
**A.** 11.53 mg/dL

**Q.** What about the POTASSIUM [1] of the same compound?
**A.** 6.6 MEQ/L

**Q.** What about the SODIUM [1] of the same compound?
**A.** 150.33 MEQ/L

**Q.** What about the “TOTAL BILIRUBIN” value [1] of the same compound?
**A.** 0.57 mg/dL

**Q.** What about the “TOTAL PROTEIN” value [1] of the same compound?
**A.** 6 G/DL

**Q.** And the BASOPHIL [2]?
**A.** 0%

**Q.** What about the EOSINOPHIL [2] of the same compound?
**A.** 0.33%

**Q.** What about the “ERYTHROCYTE COUNT” value [2] of the same compound?
**A.** 6.32 x10E6/uL

**Q.** What about the HEMATOCRIT [2] of the same compound?
**A.** 37.23%

**Q.** And the HEMOGLOBIN [2]?
**A.** 14.57 G/DL

**Q.** And the “LEUKOCYTE COUNT” value [2]?
**A.** 13.63 x10E3/uL

**Q.** What about the LYMPHOCYTE [2] of the same compound?
**A.** 80.67%

**Q.** And the “MEAN CORPUSCULAR HEMOGLOBIN” value [2]?
**A.** 23.03 pg

**Q.** And the “MEAN CORPUSCULAR HEMOGLOBIN CONCENTRATION” value [2]?
**A.** 39.13 G/DL

**Q.** And the “MEAN CORPUSCULAR VOLUME” value [2]?
**A.** 58.9 fL

**Q.** What about the MONOCYTE [2] of the same compound?
**A.** 2.67%

**Q.** What about the NEUTROPHIL [2] of the same compound?
**A.** 16.33%

**Q.** What about the “PLATELET COUNT” value [2] of the same compound?
**A.** 1180.67 x10E3/uL

**Q.** And the “ALANINE AMINOTRANSFERASE” value [2]?
**A.** 42 u/L

**Q.** What about the ALBUMIN [2] of the same compound?
**A.** 3.7 G/DL

**Q.** And the “ALKALINE PHOSPHATASE” value [2]?
**A.** 336 u/L

**Q.** What about the “ASPARTATE AMINOTRANSFERASE” value [2] of the same compound?
**A.** 62.33 u/L

**Q.** And the “BLOOD UREA NITROGEN” value [2]?
**A.** 13 mg/dL

**Q.** What about the CHLORIDE [2] of the same compound?
**A.** 106 MEQ/L

**Q.** What about the CHOLESTEROL [2] of the same compound?
**A.** 67.67 mg/dL

**Q.** And the “CREATINE PHOSPHOKINASE” value [2]?
**A.** 137.33 u/L

**Q.** What about the CREATININE [2] of the same compound?
**A.** 0.57 mg/dL

**Q.** And the GLUCOSE [2]?
**A.** 188.67 mg/dL

**Q.** And the PHOSPHORUS [2]?
**A.** 10.97 mg/dL

**Q.** What about the POTASSIUM [2] of the same compound?
**A.** 6.83 MEQ/L

**Q.** And the SODIUM [2]?
**A.** 150.67 MEQ/L

**Q.** What about the “TOTAL BILIRUBIN” value [2] of the same compound?
**A.** 0.4 mg/dL

**Q.** And the “TOTAL PROTEIN” value [2]?
**A.** 5.97 G/DL

**Q.** What about the BASOPHIL [3] of the same compound?
**A.** 0%

**Q.** What about the EOSINOPHIL [3] of the same compound?
**A.** 0.5%

**Q.** And the “ERYTHROCYTE COUNT” value [3]?
**A.** 6.49 x10E6/uL

**Q.** What about the HEMATOCRIT [3] of the same compound?
**A.** 38.15%

**Q.** What about the HEMOGLOBIN [3] of the same compound?
**A.** 15.2 G/DL

**Q.** And the “LEUKOCYTE COUNT” value [3]?
**A.** 14.55 x10E3/uL

**Q.** And the LYMPHOCYTE [3]?
**A.** 86%

**Q.** What about the “MEAN CORPUSCULAR HEMOGLOBIN” value [3] of the same compound?
**A.** 23.4 pg

**Q.** What about the “MEAN CORPUSCULAR HEMOGLOBIN CONCENTRATION” value [3] of the same compound?
**A.** 39.85 G/DL

**Q.** And the “MEAN CORPUSCULAR VOLUME” value [3]?
**A.** 58.75 fL

**Q.** What about the MONOCYTE [3] of the same compound?
**A.** 0.5%

**Q.** What about the NEUTROPHIL [3] of the same compound?
**A.** 13%

**Q.** And the “PLATELET COUNT” value [3]?
**A.** 1325.5 x10E3/uL

**Q.** What about the “ALANINE AMINOTRANSFERASE” value [3] of the same compound?
**A.** 42 u/L

**Q.** And the ALBUMIN [3]?
**A.** 4 G/DL

**Q.** And the “ALKALINE PHOSPHATASE” value [3]?
**A.** 363 u/L

**Q.** And the “ASPARTATE AMINOTRANSFERASE” value [3]?
**A.** 58.33 u/L

**Q.** And the “BLOOD UREA NITROGEN” value [3]?
**A.** 16.67 mg/dL

**Q.** What about the CHLORIDE [3] of the same compound?
**A.** 104 MEQ/L

**Q.** What about the CHOLESTEROL [3] of the same compound?
**A.** 80 mg/dL

**Q.** And the “CREATINE PHOSPHOKINASE” value [3]?
**A.** 154.33 u/L

**Q.** What about the CREATININE [3] of the same compound?
**A.** 0.6 mg/dL

**Q.** What about the GLUCOSE [3] of the same compound?
**A.** 176.67 mg/dL

**Q.** What about the PHOSPHORUS [3] of the same compound?
**A.** 12.6 mg/dL

**Q.** And the POTASSIUM [3]?
**A.** 7.23 MEQ/L

**Q.** And the SODIUM [3]?
**A.** 150 MEQ/L

**Q.** And the “TOTAL BILIRUBIN” value [3]?
**A.** 0.67 mg/dL

**Q.** What about the BASOPHIL [4] of the same compound?
**A.** 0%

**Q.** What about the EOSINOPHIL [4] of the same compound?
**A.** 0.5%

**Q.** And the “ERYTHROCYTE COUNT” value [4]?
**A.** 5.88 x10E6/uL

**Q.** What about the HEMATOCRIT [4] of the same compound?
**A.** 35.5%

**Q.** What about the HEMOGLOBIN [4] of the same compound?
**A.** 15 G/DL

**Q.** And the “LEUKOCYTE COUNT” value [4]?
**A.** 12.3 x10E3/uL

**Q.** And the LYMPHOCYTE [4]?
**A.** 85.5%

**Q.** And the “MEAN CORPUSCULAR HEMOGLOBIN” value [4]?
**A.** 25.5 pg

**Q.** What about the “MEAN CORPUSCULAR HEMOGLOBIN CONCENTRATION” value [4] of the same compound?
**A.** 42.4 G/DL

**Q.** What about the “MEAN CORPUSCULAR VOLUME” value [4] of the same compound?
**A.** 60.25 fL

**Q.** And the MONOCYTE [4]?
**A.** 4.5%

**Q.** What about the NEUTROPHIL [4] of the same compound?
**A.** 9.5%

**Q.** And the “PLATELET COUNT” value [4]?
**A.** 1166 x10E3/uL

**Q.** And the “ALANINE AMINOTRANSFERASE” value [4]?
**A.** 43 u/L

**Q.** What about the ALBUMIN [4] of the same compound?
**A.** 3.65 G/DL

**Q.** And the “ALKALINE PHOSPHATASE” value [4]?
**A.** 219.5 u/L

**Q.** What about the “ASPARTATE AMINOTRANSFERASE” value [4] of the same compound?
**A.** 64 u/L

**Q.** What about the “BLOOD UREA NITROGEN” value [4] of the same compound?
**A.** 16 mg/dL

**Q.** And the CHLORIDE [4]?
**A.** 106.5 MEQ/L

**Q.** What about the CHOLESTEROL [4] of the same compound?
**A.** 65.5 mg/dL

**Q.** And the “CREATINE PHOSPHOKINASE” value [4]?
**A.** 164 u/L

**Q.** What about the CREATININE [4] of the same compound?
**A.** 0.6 mg/dL

**Q.** And the GLUCOSE [4]?
**A.** 166.5 mg/dL

**Q.** And the PHOSPHORUS [4]?
**A.** 11.95 mg/dL

**Q.** And the POTASSIUM [4]?
**A.** 6.7 MEQ/L

**Q.** What about the SODIUM [4] of the same compound?
**A.** 151.5 MEQ/L

**Q.** And the “TOTAL BILIRUBIN” value [4]?
**A.** 0.35 mg/dL

**Q.** And the “TOTAL PROTEIN” value [4]?
**A.** 6 G/DL
